Laboratory results: patent publication US20240254531A1, “Enhancing Coupled Catalytic Activity of Multi-Enzyme Cascades With Liquid-Liquid Phase Separation Using Peptide-Based Condensates” (The Government of the United States of America, as …, priority 2023, published 2024)

Assays:
[1] = tested on: other enzymes; assay: enhancement of activity of other enzymes by peptide; assay type: biochemical; conditions: as detailed in the Appendix of Provisional Patent Application No. 63/482,369
[2] = tested on: three enzyme cascade (AspB, LysC, Asd); assay: three-enzyme cascade reaction, rate of NADP+ formation with added peptide; assay type: biochemical, Bacillus subtilis (AspB); E. coli (LysC; conditions: addition of peptide vs no BP, FIG. 6A
Source text: A three-enzyme cascade was used for these examples. The first enzyme in the cascade is Bacillus subtilis aspartate ammonia lyase (AspB), which catalyzes the conversion of fumaric acid to aspartic acid. The AspB gene utilized here encodes a 54.5 kDa monomer which assembles into a final active tetramer. The second enzyme is E. coli aspartokinase III (LysC) which phosphorylates aspartic acid in the second step using adenosine triphosphate (ATP) as the phosphate donor. The LysC gene encodes a 49.9 kDa monomer, which assembles into an active ˜100 kDa homodimer. The third enzyme in the cascade, E. coli aspartate-ß-semialdehyde dehydrogenase (Asd), catalyzes conversion of aspartyl phosphate to aspartate semialdehyde using nicotinamide adenine dinucleotide phosphate (NADPH) as the reducing co-factor. The Asd gene encodes a 41.4 kDa monomer which assembles into the active homodimer.
FIG. 2 provides data for free enzymes (not bound to QD) in the presence of different blocking peptides described in Table 1. […]
(§1) Also assayed were two peptides comprising primarily histidine, termed His9 and His12, with their sequences provided below in Table 3. […] FIG. 6C is a fluorescence microscopy image of the same subject of FIG. 6B showing that Alexa594 labeled enzymes are colocalized to the coacervate interior.

[3] = brightfield microscopy of peptide coacervate formation; assay type: physicochemical; conditions: brightfield microscopy image, FIG. 6B
Source text: FIGS. 6A-6C show data for enhancement with His9 and His12 peptides and fluorescence micrograph images denoting coacervate formation and localization of enzymes within the coacervates. In FIG. 6A one can see the normalized initial rate of NADP+ formation of the three enzyme cascade with no BP or with addition of the His9 and His12 peptides. The flux through the cascade is increased with the addition of the BP. […] FIG. 6C is a fluorescence microscopy image of the same field as FIG. 6B showing that Alexa594 labeled enzymes are colocalized to the coacervate interior. Excitation was with a 562 nm laser and detection at 570-620 nm.
as §1, with “3. FIGS. 6A to 6C show data relating to these peptides. […] The flux through the cascade is increased with the addition of the BP.” for “3.”

Substance | activity of other enzymes [1] | flux through the cascade (normalized initial rate of NADP+ formation) [2] | coacervate formation [3]
[NH2]GSWHHHHHH[Amide] (H-GSWHHHHHH-NH2) [His-amine] | enhance activity | – | –
[NH2]WHHHHHHHHHHHH[COOH] (H-WHHHHHHHHHHHH-OH) [His12] | – | increased | –
[NH2]WHHHHHHHHH[COOH] (H-WHHHHHHHHH-OH) [His9] | – | increased | form coacervates
